Measurements reported in patent US20030187261A1, “Purine derivatives, process for their preparation and use thereof” (priority 2000, published 2003).

Assays:
[1] = system: T-lymphoblastic leukemia cell line CEM; assay: MTT cytotoxicity assay, CEM; assay type: cell-based, human; settings: Homo sapiens, 72 hours (TCS50 in the method)
How it was run: (§1)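 Cells pre-incubated 24 h, then exposed to six 4-fold dilutions (top well concentration typically 266.7 μM) in duplicate for 72 h at 37 °C, 5% CO2. MTT read-out, SDS-solubilized formazan measured at 540 nm. TCS50, the concentration lethal to 50% of tumour cells, derived from dose-response curves.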

B16 melanoma = assay: MTT cytotoxicity assay, B16; assay type: cell-based, mouse; settings: Mus musculus, B16, 72 hours (TCS50 in the method)
How it was run: as §1

normal human lymphocytes = assay: concanavalin A induced lymphocyte proliferation, [3H]-TdR incorporation; assay type: cell-based; settings: Homo sapiens, Lymphocyte, 72 hours, read-out: ED50 (the source's name)
How it was run: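 Ficoll-isolated human peripheral blood mononuclear cells, stimulated with concanavalin A, exposed to six 4-fold compound dilutions (top well concentration 266.7 μM) for 72 h at 37 °C. Proliferation read as [3H]-TdR incorporation over 6 h by scintillation counting; ED50 taken from dose-response curves relative to control cpm.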

## CCCCCCNc1nc(NC(CO)c2ccccc2)c2ncn(C(C)C)c2n1 (stereo not drawn) [P23, 2-(hexylamino)-6-(1-phenyl-2-hydroxyethylamino)-9-isopropylpurine]
[1]
  IC50: 34 µM
B16 melanoma
  IC50: 36.8 µM
Normal human lymphocytes
  EC50: 56 µM
